This passage reports melting point results from a melting point compilation (Tetko et al.).

By melting point is commonly meant the temperature of the solid-liquid transition. Compound `O=C(O)C(Sc1ccc(F)cc1)c1ccccc1` (configuration not stated) gave a melting point of 84 to 86 °C.
To `CC(C)(NS(C)(=O)=O)C(=O)O` belongs 71 to 73 °C; to `O=Cc1cnc(-c2cccnc2)s1`, 139 to 141 °C.
With `CC(C)C(NC(=O)c1ccc(Cl)cc1)C(=O)O` (configuration not stated), the melting point lay in the range of 197 to 199 °C.
The value for `O=C(O)Cc1c[nH]c2ccc(F)cc12` was 139 to 141 °C.
To `O=C(O)c1oc2ccccc2c1CO` belongs 153 to 155 °C.
Consider `O=C(Nc1ccccc1[N+](=O)[O-])N1CCCC1`, for which the melting point lay within 99 to 101 °C.
The value for `O=C(O)c1csc(-c2cccc([N+](=O)[O-])c2)n1` was 214 to 216 °C.
As to `Cc1cc(C=CC(=O)O)cnc1N`, the melting point lay in the range of 229 to 231 °C.
The value for `O=C(Nc1nccs1)C1CCNCC1` was 196 to 198 °C; that for `O=C1COc2cc(S)c(Cl)cc2N1` was 256 to 258 °C.
To `Clc1cc(-c2nnco2)ccn1` belongs 109 to 111 °C.
To `COc1ccc(C(=O)c2ccccc2)c(OC)c1` belongs 81 to 83 °C; to `CCN(CC)C(=O)c1ccc(N)cc1`, 118 to 120 °C.
For `CC1(C)C(=O)NS1(=O)=O`, the melting point lay within 137 to 139 °C.
The value for `O=C(NC=C(Cl)Cl)c1ccc(F)cc1` was 69 to 71 °C.
The value for `Cc1cc(N)ccc1N1CCSCC1` was 67 to 69 °C.
The value for `Nc1cc(-c2ccc(I)cc2)[nH]n1` was 186 to 188 °C; that for `Cc1ccsc1C(=O)Nc1ccc(O)cc1` was 127 to 129 °C.
Regarding `CC1(C(=O)O)CCOCC1`, the melting point lay in the range of 62 to 64 °C.
To `Cc1cc(Br)c(C(=O)O)cn1` belongs 119 to 121 °C.
The value for `Nc1cccc(OCCF)c1` was 33 to 35 °C; that for `O=C(O)CC1CCOCC1` was 59 to 61 °C; that for `O=S(=O)(Cl)c1ccc(OCC(F)(F)F)cc1` was 55 to 57 °C.
As for `Cc1cc(N)n(-c2ccccn2)n1`, the melting point fell in the range of 102 to 104 °C.
To `Cc1nc2ccnn2c(C)c1C(=O)O` belongs 194 to 196 °C; to `COC(=O)CCOc1ccc(Cl)cc1Cl`, 35 to 37 °C; to `O=C(O)c1cnoc1-c1cccs1`, 198 to 200 °C.
The value for `O=C(O)C1Cc2cc(F)ccc2O1` (configuration not stated) was 129 to 131 °C; that for `COc1ccc(-c2ccncc2C=O)cc1` was 82 to 84 °C; that for `CC1CCC2(CC1)NC(=O)N(N)C2=O` (configuration not stated) was 118 to 120 °C.
The value for `Oc1cc(C2CC2)ncn1` was 188 to 190 °C; that for `Cn1cc(S(=O)(=O)Cl)c([N+](=O)[O-])n1` was 70 to 72 °C.
Take `O=C1OCc2c1cccc2S(=O)(=O)Cl`: the melting point was in the range of 124 to 126 °C.
The value for `Nc1c(-c2ccncc2)nc2ccccn12` was 211 to 213 °C; that for `CS(=O)(=O)Cc1noc(C(Cl)(Cl)Cl)n1` was 110 to 112 °C; that for `CN1CCN(C(=O)CC#N)CC1` was 118 to 120 °C.
The value for `CCOC(=O)c1sc(-c2ccc(Cl)cc2Cl)cc1N` was 100 to 102 °C; that for `CN(C)S(=O)(=O)c1ccc2c(c1)nc(CCC(=O)O)n2C` was 205 to 209 °C.
`N#CC1CSCCN1` (configuration not stated): the melting point lay in the range of 81 to 83 °C.
To `NS(=O)(=O)c1nc2ccccc2s1` belongs 177 to 179 °C; to `Cc1ccc(NS(=O)(=O)c2ccsc2C(=O)O)cc1`, 192 to 194 °C.
In turn, `CC(N)c1ccc(NC(=O)c2ccc(F)cc2)cc1` (configuration not stated) showed a melting point of 110 to 112 °C.
To `O=C(O)c1cc(C=Cc2ccncc2)nc2ccc(Br)cc12` belongs 309 to 311 °C.
Take `CS(=O)(=O)N1CCCC(CCl)C1` (configuration not stated): the melting point lay in the range of 64 to 66 °C.
`CCCN1CCc2c(sc(N)c2C(=O)OCC)C1` returned a melting point of 69 to 73 °C.
To `CC(=O)c1ccc(S(C)(=O)=O)c(F)c1` belongs 103 to 105 °C; to `N#Cc1ccccc1Oc1ccccn1`, 72 to 74 °C; to `CC(NC(N)=S)c1ccccc1` (configuration not stated), 94 to 96 °C.
To `Oc1ccc(CNCc2ccco2)cc1` belongs 107 to 109 °C; to `O=C(O)c1cc([N+](=O)[O-])ccc1Sc1nnnn1-c1ccccc1`, 218 to 220 °C.
The value for `CC(=O)c1cccc(N2CCCC2=O)c1` was 90 to 95 °C.
In the case of `NNC(=O)CN1CCCC1=O`, the melting point fell in the range of 99 to 101 °C.
To `COc1ccc(C=O)c([N+](=O)[O-])c1` belongs 91 to 93 °C; to `O=C(Nc1cc(Cl)ccc1C(=O)O)c1cccs1`, 267 to 269 °C; to `O=C(O)CC(=O)NC1CC1`, 99 to 101 °C.
The value for `O=S(=O)(c1ccc2oc(S)nc2c1)N1CCOCC1` was 251 to 253 °C; that for `Cc1ccc(CN2CCSCC2)cc1N` was 136 to 138 °C; that for `Nc1sc2c(c1-c1nc3ccccc3[nH]1)CCCC2` was 175 to 177 °C.
As to `ClCc1nnc(-c2ccc(Cl)cc2Cl)o1`, the melting point was 87 to 89 °C.
To `N#Cc1ccc(S(=O)(=O)Cl)c(F)c1` belongs 61 to 63 °C.
The value for `O=C(O)c1ncoc1-c1cccs1` was 200 to 202 °C; that for `CC(O)Cc1cc(F)ccc1Br` (configuration not stated) was 56 to 58 °C; that for `COc1ccc(Nc2nnc(S)s2)cc1` was 184 to 186 °C.
The value for `Cc1ccccc1NCC(=O)N1CCCCC1` was 78 to 80 °C; that for `Nc1cccc(Br)c1CO` was 94 to 96 °C; that for `CN1C(=O)CCc2cc(Br)ccc21` was 79 to 81 °C.
The compound `O=S(=O)(Nc1cccc(Cl)c1)c1ccc2oc(S)nc2c1` came in with a melting point of 173 to 175 °C.
Consider `COc1ccc(S(=O)(=O)NC(C)(C)C)cc1N`, for which the melting point lay in the range of 119 to 121 °C.
To `Cc1cc(S(=O)(=O)Cl)ccc1-n1cnnn1` belongs 134 to 136 °C.
With `CCOC(=O)COc1cccc(C(=O)O)c1`, the melting point was 119 to 121 °C.
The value for `COc1cc(F)cc(F)c1S(=O)(=O)Cl` was 75 to 77 °C.
To `Clc1nc(CN2CCCCC2)nc2sc3c(c12)CCC3` belongs 75 to 77 °C.
The value for `Cn1cc(C(=O)Nc2ccc(O)cc2)cn1` was 231 to 233 °C; that for `Cc1ccccc1C1CNC(=O)C1` (configuration not stated) was 115 to 117 °C.
Regarding `Cc1ccnc(N)c1C#N`, the melting point is 148 to 150 °C.
In the case of `Nc1ncn(Cc2ccc(Cl)cc2)n1`, the melting point was in the range of 156 to 158 °C.
To `O=C(O)c1ccc(Cl)c(S(=O)(=O)NCc2ccco2)c1` belongs 133 to 135 °C; to `COc1ccccc1C(C)N(C)C(=O)CCl` (configuration not stated), 66 to 68 °C.
The value for `COC(=O)c1cc(Oc2ccc(F)cc2)c(F)cc1N` was 97 to 99 °C; that for `O=Cc1ccc(OCc2ncon2)cc1` was 98 to 100 °C.
To `O=C(O)C1(c2cccc(Br)c2)CC1` belongs 143 to 145 °C.
`O=C(O)C1CCCN(c2nc3ccccc3s2)C1` (configuration not stated) returned a melting point of 166 to 168 °C.
As to `Cc1cc(C)c(S(=O)(=O)N2CCC(C(=O)O)CC2)c(C)c1`, the melting point fell in the range of 181 to 183 °C.
To `CC(C)c1noc(-c2cc(Cl)ccc2N)n1` belongs 93 to 95 °C; to `O=C(CCl)Nc1cccc(S(=O)(=O)N=C2CCCN2)c1`, 156 to 160 °C; to `COC(=O)c1occc1CC#N`, 62 to 64 °C.
